According to ChEMBL document CHEMBL5727406, “Positive allosteric modulators of the GLP-1 receptor” (2019):

Biological target: Glucagon-like peptide 1 receptor (Homo sapiens, UniProt P43220)
Experiment: GLP-1 Assay with EX-4 Synthetic Agonist: To assess the effects of test compounds on GLP-1 or glucagon potency and efficacy, a high-throughput calcium mobilization assay was used essentially as previously described (Morris L C, Days E L, Turney M, Mi D, Lindsley C W, Weaver C D, Niswender K D, A Duplexed High-Throughput Screen to Identify Allosteric Modulators of the Glucagon-Like Peptide 1 and Glucagon Receptors. J. Biomol. Screen. 2014 Feb. 13, 19(6):847-858). Briefly, human GLP-1R or Glucagon Receptor 9-3-H cells over-expressing a promiscuous G-protein (Millipore, Billerica, Mass.) were plated at 15,000 cells/well in black-walled 384-well plates (Greiner Bio-one, Monroe, N.C.) in Dulbecco's Modified Eagles Medium (DMEM) with 10% FCS, 4.0 mM L-glutamine, 1× non-essential amino acids (NEAAs), and 10.0 mM HEPES without antibiotics. After overnight attachment, cells were washed twice with assay buffer (HBSS supplemented with 20 mM HEPES and 1.0 mM probenecid) using an EL×405CW cell washer (Bio-Tek, Winooski, Vt.) and then loaded with the calcium sensitive dye fluo-4 AM (Invitrogen, Grand Island, N.Y.) at a final concentration of 2.0 μM in assay buffer. After a 45-minute incubation at room temperature, the dye was removed by washing, leaving 20 μL of assay buffer. […]

Glucagon-like peptide 1 receptor, sequence (P43220 whole entry): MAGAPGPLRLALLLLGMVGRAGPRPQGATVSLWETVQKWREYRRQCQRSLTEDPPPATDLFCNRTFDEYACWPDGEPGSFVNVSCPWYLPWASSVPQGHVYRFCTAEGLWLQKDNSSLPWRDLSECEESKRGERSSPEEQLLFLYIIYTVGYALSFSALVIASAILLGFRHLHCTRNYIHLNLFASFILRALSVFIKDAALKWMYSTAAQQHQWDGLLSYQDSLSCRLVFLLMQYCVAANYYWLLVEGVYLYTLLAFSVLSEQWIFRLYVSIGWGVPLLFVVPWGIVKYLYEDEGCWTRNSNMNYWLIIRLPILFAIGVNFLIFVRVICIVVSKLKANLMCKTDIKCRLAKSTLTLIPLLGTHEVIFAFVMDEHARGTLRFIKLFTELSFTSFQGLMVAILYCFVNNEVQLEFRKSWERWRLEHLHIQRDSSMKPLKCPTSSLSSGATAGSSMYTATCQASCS

EC50: > 30 µM
Structure (SMILES): Cc1c2ccccc2n2c(C(=O)NC[C@H]3CCCN3C(C)C)cn(C3CCCC3)c(=O)c12
